ChEMBL document CHEMBL5230088 (Eur J Med Chem, 2020)

Experiments:
Nipah virus [1] = assay: Antiviral activity against NiV by virus titre reduction assay; assay type: functional, organism-based; conditions: Henipavirus nipahense
SARS-CoV-2 = assay: Antiviral activity against SARS-CoV-2 infected in HAE cells assessed as reduction in viral infection; assay type: functional, organism-based; conditions: Severe acute respiratory syndrome coronavirus 2, HAE
Junin virus = assay: Antiviral activity against Argentinian mammarenavirus assessed as inhibition of viral replication; assay type: functional, organism-based; conditions: Mammarenavirus juninense
[2] = Cytotoxicity against African green monkey Vero E6 cells; assay type: toxicity, cell-based, Vero C1008; conditions: chlorocebus sabaeus
[3] = Cytotoxicity against mouse Astrocytoma delayed brain tumor (DBT) cells; assay type: toxicity, cell-based, Astrocytoma delayed brain tumor (DBT) cell
[4] = system: Respiratory syncytial virus; assay: Antiviral activity against RSV; assay type: functional, organism-based; conditions: human respiratory syncytial virus
[5] = system: Middle East respiratory syndrome-related coronavirus; assay: Antiviral activity against MERS-CoV infected in HLE cells assessed as inhibition of viral replication; assay type: functional, organism-based
Ebolavirus [6] = assay: Antiviral activity against EBOV infected in HFF assessed as reduction in viral replication; assay type: functional, organism-based; conditions: Orthoebolavirus
Ebolavirus [7] = assay: Antiviral activity against EBOV infected in human Huh-7 cells assessed as reduction in viral replication; assay type: functional, organism-based; conditions: Orthoebolavirus
Nipah virus [8] = assay: Antiviral activity against NiV by reporter assay; assay type: functional, organism-based; conditions: Henipavirus nipahense
Ebolavirus [9] = assay: Antiviral activity against EBOV infected in rhesus monkey model assessed as protection against viral infection at 10 mg/kg, iv administered once daily fir 12 days relative to control; assay type: functional; conditions: time 12 day
[10] = Prodrug conversion in mouse lungs assessed as NTP formation at 10 mg/kg; assay type: ADME, organism-based, Lung; conditions: in vivo
Ebolavirus [11] = assay: Antiviral activity against EBOV infected in human endothelial cells assessed as reduction in viral replication; assay type: functional, organism-based; conditions: Orthoebolavirus
[12] = Antiviral activity against Porcine delta coronavirus assessed as reduction in viral replication; assay type: functional, Porcine deltacoronavirus
[13] = system: Middle East respiratory syndrome-related coronavirus; assay: Antiviral activity against MERS-CoV infected in HAE cells; assay type: functional, organism-based
Human coronavirus OC43 = assay: Antiviral activity against HCoV-OC43; assay type: functional, organism-based; conditions: Betacoronavirus 1
[14] = Prodrug conversion in rhesus monkey plasma assessed as NTP formation at 10 mg/kg; assay type: ADME, organism-based, Macaca mulatta; conditions: in vivo
Nipah virus [15] = assay: Antiviral activity against NiV by cytopathic effect assay; assay type: functional, organism-based; conditions: Henipavirus nipahense
[16] = Cytotoxicity against human Huh-7 cells by celltiter-glo Assay; assay type: toxicity, cell-based
Nipah virus [17] = assay: Antiviral activity against NiV by antigen reduction assay; assay type: functional, organism-based; conditions: Henipavirus nipahense
Lassa virus = assay: Antiviral activity against Lassa virus assessed as inhibition of viral replication; assay type: functional, organism-based; conditions: Mammarenavirus lassaense
Murine hepatitis virus = assay: Antiviral activity against MHV infected in mouse Astrocytoma delayed brain tumor (DBT) cells; assay type: functional, organism-based; conditions: Murine coronavirus, Astrocytoma delayed brain tumor (DBT) cell
Ebolavirus [18] = assay: Antiviral activity against EBOV infected in human primary macrophage cells assessed as reduction in viral replication; assay type: functional, organism-based; conditions: Orthoebolavirus
Ebolavirus [19] = assay: Antiviral activity against EBOV infected in human HeLa cells assessed as reduction in viral replication; assay type: functional, organism-based; conditions: Orthoebolavirus

**Q.** Which EC50 (Nipah virus [1]) does the source give for `CCC(CC)COC(=O)[C@H](C)N[P@](=O)(OC[C@H]1O[C@@](C#N)(c2ccc3c(N)ncnn23)[C@H](O)[C@@H]1O)Oc1ccccc1` here?
**A.** 29 nM

**Q.** And the EC50 (SARS-CoV-2)?
**A.** 69 nM

**Q.** And the EC50 (Junin virus)?
**A.** 470 nM

**Q.** What about the EC90 (Junin virus) of the same compound?
**A.** 1330 nM

**Q.** And the CC50 [2]?
**A.** > 100000 nM

**Q.** What about the CC50 [3] of the same compound?
**A.** 39000 nM

**Q.** And the EC50 [4]?
**A.** 19 nM

**Q.** And the EC90 [4]?
**A.** 51 nM

**Q.** What about the IC50 [5] of the same compound?
**A.** 25 nM

**Q.** And the EC50 (Ebolavirus [6])?
**A.** 60 nM

**Q.** And the EC50 (Ebolavirus [7])?
**A.** 60 nM

**Q.** What about the EC50 (Nipah virus [8]) of the same compound?
**A.** 29 nM

**Q.** And the Activity (Ebolavirus [9])?
**A.** 100%

**Q.** What about the Drug metabolism [10] of the same compound?
**A.** 2 µmol/L

**Q.** And the EC50 (Ebolavirus [11])?
**A.** 60 nM

**Q.** What about the EC50 [12] of the same compound?
**A.** 20 nM

**Q.** And the EC50 [13]?
**A.** 74 nM

**Q.** What about the EC50 (Human coronavirus OC43) of the same compound?
**A.** 150 nM

**Q.** What about the Drug metabolism [14] of the same compound?
**A.** 30 µmol/L

**Q.** And the EC50 (Nipah virus [15])?
**A.** 29 nM

**Q.** And the CC50 [16]?
**A.** > 10000 nM

**Q.** And the EC50 (Nipah virus [17])?
**A.** 29 nM

**Q.** And the EC50 (Lassa virus)?
**A.** 1480 nM

**Q.** And the EC90 (Lassa virus)?
**A.** 2800 nM

**Q.** What about the EC50 (Murine hepatitis virus) of the same compound?
**A.** 30 nM

**Q.** And the EC50 (Ebolavirus [18])?
**A.** 60 nM

**Q.** And the EC50 (Ebolavirus [19])?
**A.** 60 nM
